Molecules are shown by their SMILES.

A short description of data set [1]: Fraction unbound in human plasma at 0.5 uM by equilibrium dialysis method. Type of data set: ADME, cell-free. A general note: In equilibrium dialysis only unbound substance equilibrates across the membrane.
The target in data set [2] is T1, D(4) dopamine receptor (Homo sapiens, UniProt P21917).
T1 sequence (P21917 whole entry): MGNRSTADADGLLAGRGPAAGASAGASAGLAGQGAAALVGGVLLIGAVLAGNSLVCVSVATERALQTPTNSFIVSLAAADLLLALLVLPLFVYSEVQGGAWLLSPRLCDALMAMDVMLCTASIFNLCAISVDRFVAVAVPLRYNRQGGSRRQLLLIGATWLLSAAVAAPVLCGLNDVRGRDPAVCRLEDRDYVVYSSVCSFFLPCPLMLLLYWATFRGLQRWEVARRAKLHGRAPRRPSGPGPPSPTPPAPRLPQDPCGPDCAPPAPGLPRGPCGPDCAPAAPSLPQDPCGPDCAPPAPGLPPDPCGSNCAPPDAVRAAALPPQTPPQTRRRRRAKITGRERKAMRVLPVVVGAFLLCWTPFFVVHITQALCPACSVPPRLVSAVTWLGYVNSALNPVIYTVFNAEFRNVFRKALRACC
The experiment in a line: Agonist activity at human SP/Myc epitope-tagged dopamine D4 receptor expressed in HEK293T cells assessed as RLuc8-fused Galphai1 activation after 2 mins by BRET assay. Type of data set: cell-based, HEK-293T.

The nature of data set [3]: Half life in CD1 mouse plasma at 3 mg/kg, sc by UPLC-MS analysis. In kind it is ADME, organism-based.
Data set [4] relates to Brain. Put plainly: fAUClast in CD1 mouse brain at 3 mg/kg, sc by UPLC-MS analysis. In kind it is ADME, organism-based. To be noted: in vivo.
Data set [5] concerns the target Muscarinic acetylcholine receptor M3 (Homo sapiens, UniProt P20309). Put plainly: Displacement of [3H]NMS from human muscarinic M3 receptor expressed in CHO cell membranes after 2 hrs by liquid scintillation counting method. On the technique in general: Loss of bound radioactivity is the signal in a displacement assay; it reports binding, not function.
In data set [6] the target is Beta-2 adrenergic receptor (Homo sapiens, UniProt P07550). The experiment in a line: Displacement of [3H]CGP12177 from human recombinant beta2 adrenergic receptor expressed in HEK293 cell membranes after 90 mins by beta counting method.
Beta-2 adrenergic receptor, sequence (P07550 whole entry): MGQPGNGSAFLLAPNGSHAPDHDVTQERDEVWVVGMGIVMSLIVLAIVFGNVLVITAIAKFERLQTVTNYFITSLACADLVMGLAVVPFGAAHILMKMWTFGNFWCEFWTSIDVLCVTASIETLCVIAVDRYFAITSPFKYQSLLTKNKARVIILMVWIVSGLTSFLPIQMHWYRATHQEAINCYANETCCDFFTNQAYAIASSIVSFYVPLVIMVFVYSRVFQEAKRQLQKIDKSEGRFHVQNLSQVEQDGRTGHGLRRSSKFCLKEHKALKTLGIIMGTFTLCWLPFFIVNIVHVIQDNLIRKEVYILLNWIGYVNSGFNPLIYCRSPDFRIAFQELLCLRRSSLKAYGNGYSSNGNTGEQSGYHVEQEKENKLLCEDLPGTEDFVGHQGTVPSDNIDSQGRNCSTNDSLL
For data set [7], the target named is T2, Muscarinic acetylcholine receptor M1 (Homo sapiens, UniProt P11229).
T2 sequence (P11229 whole entry): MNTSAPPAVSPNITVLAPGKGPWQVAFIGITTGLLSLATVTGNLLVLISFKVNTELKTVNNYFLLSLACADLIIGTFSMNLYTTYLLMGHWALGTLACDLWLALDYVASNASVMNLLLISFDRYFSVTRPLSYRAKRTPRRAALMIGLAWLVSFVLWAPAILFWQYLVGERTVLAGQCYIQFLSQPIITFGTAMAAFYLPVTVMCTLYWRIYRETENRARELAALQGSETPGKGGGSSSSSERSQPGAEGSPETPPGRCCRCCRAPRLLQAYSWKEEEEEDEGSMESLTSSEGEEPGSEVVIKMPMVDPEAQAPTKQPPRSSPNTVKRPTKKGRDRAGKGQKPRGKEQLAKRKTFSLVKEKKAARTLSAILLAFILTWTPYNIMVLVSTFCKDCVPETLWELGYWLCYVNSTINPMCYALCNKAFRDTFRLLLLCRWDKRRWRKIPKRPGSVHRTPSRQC
The experiment in a line: (§1) Antagonist activity at human SP/Myc epitope-tagged muscarinic M1 receptor expressed in HEK293T cells assessed as inhibition of carbachol-induced mVenus-fused beta-arrestin2 recruitment preincubated for 15 mins followed by carbachol induction measured after 2 mins by BRET assay. In kind it is cell-based, HEK-293T.

Data set [8] addresses T3, Muscarinic acetylcholine receptor M1 (Homo sapiens) (UniProt P11229).
T3 sequence (whole entry): T2 sequence (P11229 whole entry)
Described as §1. Type of data set: cell-based. To be noted: HEK-293T.

The species entered for data set [9] is Homo sapiens. The experiment in a line: Selectivity ratio of Ki for human dopamine D2 receptor to Ki for human dopamine D4 receptor.
The nature of data set [10]: AUClast in CD1 mouse plasma at 3 mg/kg, sc by UPLC-MS analysis. In kind it is ADME, organism-based. On the set-up: dose 3 mg/kg, route subcutaneous, time 0 - last.
For data set [11], the system named is MDR1. Put plainly: Apparent passive permeability across apical to basolateral side in MDCK2 cells expressing MDR1 at 3 uM after 60 mins by mass spectroscopy. To be noted: dog, MDCK-MDR1. Type of data set: ADME, cell-based, Canis lupus familiaris, MDCK-II.
The subject of data set [12] is Plasma. Put plainly: fAUClast in CD1 mouse plasma at 3 mg/kg, sc by UPLC-MS analysis. As to conditions: in vivo. In kind it is ADME, organism-based.
Data set [13] is described as follows: Tmax in CD1 mouse brain at 3 mg/kg, sc by UPLC-MS analysis. In kind it is ADME, organism-based.
Data set [14] deals with T2, Muscarinic acetylcholine receptor M1. Put plainly: Agonist activity at human SP/Myc epitope-tagged muscarinic M1 receptor expressed in HEK293T cells assessed as RLuc8-fused Galphaq activation after 2 mins by BRET assay. In kind it is cell-based, HEK-293T. In general terms: Bioluminescence resonance energy transfer reports proximity on the nanometre scale.
The target of data set [15] is T4, Muscarinic acetylcholine receptor M4 (Homo sapiens) (UniProt P08173).
T4 sequence (whole entry): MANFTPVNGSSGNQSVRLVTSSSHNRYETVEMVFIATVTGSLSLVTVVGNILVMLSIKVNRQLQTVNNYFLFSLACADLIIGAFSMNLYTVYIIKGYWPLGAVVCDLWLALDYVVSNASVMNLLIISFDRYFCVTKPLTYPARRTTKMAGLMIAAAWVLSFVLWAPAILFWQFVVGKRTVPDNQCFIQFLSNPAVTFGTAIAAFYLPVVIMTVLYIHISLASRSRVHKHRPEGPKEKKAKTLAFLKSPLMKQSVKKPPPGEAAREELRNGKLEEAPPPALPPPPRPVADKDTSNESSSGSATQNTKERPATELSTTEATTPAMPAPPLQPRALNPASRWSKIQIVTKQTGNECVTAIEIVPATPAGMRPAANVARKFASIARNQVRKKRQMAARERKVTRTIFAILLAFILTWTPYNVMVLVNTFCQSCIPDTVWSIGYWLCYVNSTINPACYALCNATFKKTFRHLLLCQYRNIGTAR
Put plainly: Agonist activity at human SP/Myc epitope-tagged muscarinic M4 receptor expressed in HEK293T cells assessed as RLuc8-fused Galphaq activation after 2 mins by BRET assay relative to carbachol. Type of data set: cell-based. To be noted: HEK-293T.

The nature of data set [16]: Intrinsic clearance in mouse liver microsomes assessed per mg of protein at 0.5 uM preincubated for 30 mins followed by NADPH addition measured after 30 mins by HPLC-MS/MS method. Type of data set: ADME, microsome. As to conditions: read-out: CLH.
Data set [17] has as its target D(3) dopamine receptor (Homo sapiens, UniProt P35462). Put plainly: Displacement of [3H]N-methylspiperone from human dopamine D3 receptor expressed in HEK293 cell membranes after 1 hr by scintillation counting method.
Data set [18] can be described thus: Ratio of AUC in CD1 mouse brain to AUC in CD1 mouse plasma at 3 mg/kg, sc. To be noted: read-out: Ratio AUC. Type of data set: ADME, organism-based.
A short description of data set [19]: Half life in CD1 mouse brain at 3 mg/kg, sc by UPLC-MS analysis. Type of data set: ADME, organism-based.
Data set [20] in a line: Cmax in CD1 mouse brain at 3 mg/kg, sc after 0.25 hrs by UPLC-MS analysis. Type of data set: ADME, organism-based. On the set-up: dose 3 mg/kg, route subcutaneous.
Data set [21] deals with T4, Muscarinic acetylcholine receptor M4 (Homo sapiens). The experiment in a line: (§2) Antagonist activity at human SP/Myc epitope-tagged muscarinic M4 receptor expressed in HEK293T cells assessed as inhibition of carbachol-induced RLuc8-fused Galphaq activation preincubated for 15 mins followed by carbachol induction measured after 2 mins by BRET assay. Type of data set: cell-based. As to conditions: HEK-293T.

For data set [22], the target named is T5, Muscarinic acetylcholine receptor M4 (Homo sapiens, UniProt P08173).
T5 sequence (P08173 whole entry): T4 sequence (whole entry)
The data set is described as §2. Type of data set: cell-based, HEK-293T.

The target of data set [23] is T2, Muscarinic acetylcholine receptor M1. Put plainly: (§3) Antagonist activity at human SP/Myc epitope-tagged muscarinic M1 receptor expressed in HEK293T cells assessed as inhibition of carbachol-induced RLuc8-fused Galphaq activation preincubated for 15 mins followed by carbachol induction measured after 2 mins by BRET assay. In kind it is cell-based, HEK-293T.
The target of data set [24] is T3, Muscarinic acetylcholine receptor M1 (Homo sapiens). The data set is described as §3. Type of data set: cell-based. To be noted: HEK-293T.

Muscarinic acetylcholine receptor M3, sequence (P20309 whole entry): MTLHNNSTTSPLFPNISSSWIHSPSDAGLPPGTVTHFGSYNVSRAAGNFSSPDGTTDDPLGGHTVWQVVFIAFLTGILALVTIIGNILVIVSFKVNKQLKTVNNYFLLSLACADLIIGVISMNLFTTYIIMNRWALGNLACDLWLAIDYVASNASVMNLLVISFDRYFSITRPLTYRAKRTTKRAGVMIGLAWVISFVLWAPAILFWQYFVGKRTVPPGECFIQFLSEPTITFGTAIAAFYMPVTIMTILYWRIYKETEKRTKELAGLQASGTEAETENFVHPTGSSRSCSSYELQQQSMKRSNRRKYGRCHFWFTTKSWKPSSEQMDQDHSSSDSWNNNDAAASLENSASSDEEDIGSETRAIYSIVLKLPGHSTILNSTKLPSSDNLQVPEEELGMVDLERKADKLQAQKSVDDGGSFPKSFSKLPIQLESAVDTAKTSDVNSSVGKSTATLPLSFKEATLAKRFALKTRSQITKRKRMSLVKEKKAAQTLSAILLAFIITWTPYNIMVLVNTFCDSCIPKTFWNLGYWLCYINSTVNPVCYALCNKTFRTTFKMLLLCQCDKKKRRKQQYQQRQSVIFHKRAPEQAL
D(3) dopamine receptor, sequence (P35462 whole entry): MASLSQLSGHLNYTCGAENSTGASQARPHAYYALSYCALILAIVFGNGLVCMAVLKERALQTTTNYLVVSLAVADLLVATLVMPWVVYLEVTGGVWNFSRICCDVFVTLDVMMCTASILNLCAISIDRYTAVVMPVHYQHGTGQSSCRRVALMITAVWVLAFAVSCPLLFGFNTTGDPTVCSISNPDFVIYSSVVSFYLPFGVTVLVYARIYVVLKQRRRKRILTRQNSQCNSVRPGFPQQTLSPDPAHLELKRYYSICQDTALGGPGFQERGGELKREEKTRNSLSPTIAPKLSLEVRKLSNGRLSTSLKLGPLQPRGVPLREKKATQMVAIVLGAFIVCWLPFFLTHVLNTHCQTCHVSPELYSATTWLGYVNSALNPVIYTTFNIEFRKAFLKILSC

A word on the fraction unbound: it is free concentration divided by total concentration. In general, EC50 refers to the concentration at which the effect is half-maximal. A word on the half-life: it is the time needed for the level to fall by half in the phase considered. The term Ki denotes a dissociation constant, usually derived from enzyme kinetics or from competition with a known ligand. In general, IC50 refers to the point on the concentration scale where inhibition reaches its midpoint. In general, AUC(0-t) refers to exposure summed from dosing to a finite time, without extrapolation to infinity. A high value points to more exposure. The Papp A→B is the apparent permeability from the apical to the basolateral side of a cell layer. As a reminder, the Tmax is the time at which the peak concentration occurs. As usually defined, the Emax is the maximal effect, on the per cent scale that the assay sets. The term Cmax denotes the maximum level reached in the sampled fluid or tissue. `O=C1CCc2ccccc2N1CCCN1CCN(c2ccccc2)CC1` registered a fraction unbound at 0.5 µM in [1] of 0.033. Moreover, the EC50 was 0.158 nM in data set [2] and 646 nM in data set [14]. Moreover, the half-life in data set [3] was 46.2 min; in data set [19] it was 55.8 min. Also, the fAUClast in data set [4] amounted to 204 ng·h/mL; in [12], 50.5 ng·h/mL. Also, the Ki in data set [5] was 17800 nM; in [6], 35500 nM; in data set [17] it was 1320 nM. Further, the IC50 in data set [7] was 832 nM. Moreover, the Imax in [8] was found to be 53%. Further, the Ratio Ki in data set [9] amounted to 380. The compound also showed an AUC(0-t) in data set [10] of 518 ng·h/mL. In data set [11], the apical-to-basolateral permeability (Papp A→B) at 1 h, 3 µM amounted to 16.2 ×10⁻⁶ cm/s. Further, the Tmax in [13] was found to be 15 min. In data set [15], the Emax came to 17%. Besides, the microsomal CLint at 0.5 µM in [16] is 159 µL/min/mg. The Kp in [18] came out at 4.35. For the same compound, in data set [20], the concentration peaked (Cmax) at 2050 ng/g.

In [1], `O=C1CCc2ccccc2N1CCCN1CCC(Cc2ccccc2)CC1` came in with a fraction unbound at 0.5 µM of 0.057. Moreover, the figures for the Imax in data set [21], in [8] and in [24] were 66%, 71% and 44%, respectively. In addition, the IC50 is 8510 nM in [22], 1200 nM in [7] and 2630 nM in [23]. Also, the Ki in data set [5] was 3020 nM; in [6], 9550 nM; in data set [17], 1820 nM. Also, the Ratio Ki in data set [9] was found to be 724. The apparent permeability from apical to basolateral (Papp A→B) at 1 h, 3 µM in [11] was 10.9 ×10⁻⁶ cm/s. Also, in [14], the EC50 was 186 nM. Also, the maximum response (Emax) in data set [15] amounted to 24%. Also, the microsomal CLint at 0.5 µM in [16] amounted to 396 µL/min/mg.
